Measured values: PMC9322451 (Clinical Pharmacology in Drug Development, 2022)

Tests used:
[1] = system: multidrug and toxin extrusion transporters; set-up: method as in unpublished data; conditions: ref unpublished data, read-out: half maximal inhibitory concentration; cited from earlier work
[2] = Phase 1 part B: safety (TEAEs); assay type: in vivo, human; conditions: for Any TEAE / Serious TEAE / Severe TEAE / TEAE leading to death / TEAE leading to discontinuation / Abdominal pain upper (TEAE by preferred term) / Decreased appetite (TEAE by preferred term) / Dry skin (TEAE by preferred term) / Headache (TEAE by preferred term) / Skin exfoliation (TEAE by preferred term) / Skin lesion (TEAE by preferred term): Part B, 40 mg; for participants reporting skin exfoliation / participants who experienced a TEAE / number of TEAEs reported: part B
Method: Participants were admitted to the clinical unit the day before doses were administered on days 1 and 8 and discharged on days 2 and 9, after collection of the 36‐hour postdose PK sample. The washout period between doses was 7 days. […] After dosing, participants were required to remain upright for at least 2 hours and refrain from food and drink for at least 4 hours; water was allowed after 2 hours.
Safety was assessed from the signing of informed consent until the end of study and included the following variables: treatment‐emergent adverse events (TEAEs), serious adverse events (SAEs), clinical laboratory tests (clinical chemistry, hematology, coagulation [part A only], and urinalysis), vital signs, 12‐lead ECG, primary Holter monitoring, and physical examinations (including evaluation of teeth and gingiva, and evaluation of palms and soles). Because of the mechanism of action of brensocatib, findings of hyperkeratosis, periodontitis/gingivitis, and other infections were reported as adverse events of special interest (AESIs). Renal function (part A only) was monitored by measuring serum creatinine and blood urea nitrogen, performing routine urinalysis, and measuring neutrophil gelatinase–associated lipocalin and cystatin.
Adverse events (AEs) observed before the first dosing were recorded as medical history. All medical history and AEs were coded using the Medical Dictionary for Regulatory Activities (version 21.1 or higher). A TEAE was defined as an AE that began or worsened in severity after at least 1 dose of study drug was administered. All AEs experienced by a participant were monitored until the event had resolved, any abnormal laboratory values returned to baseline or stabilized, a satisfactory explanation for the changes was identified, or the participant was lost to follow‐up.

CYP2D6 = system: CYP2D6; set-up: method as in unpublished data; conditions: ref unpublished data, read-out: half maximal inhibitory concentration; cited from earlier work
[3] = set-up: method as in unpublished data; conditions: oral or intravenous 14C‐brensocatib, rats; ref unpublished data; cited from earlier work
[4] = system: breast cancer resistance protein; set-up: method as in unpublished data; conditions: ref unpublished data; cited from earlier work
CYP2C9 = system: CYP2C9; set-up: method as in unpublished data; conditions: ref unpublished data; cited from earlier work
CYP2A6 = system: CYP2A6; set-up: method as in unpublished data; conditions: ref unpublished data; cited from earlier work
CYP2E1 = system: CYP2E1; set-up: method as in unpublished data; conditions: ref unpublished data; cited from earlier work
CYP1A2 = system: CYP1A2; set-up: method as in unpublished data; conditions: ref unpublished data; cited from earlier work
CYP3A4/5 = system: CYP3A4/5; set-up: method as in unpublished data; conditions: ref unpublished data, read-out: half maximal inhibitory concentration; cited from earlier work

Compound: Cn1c(=O)oc2ccc(-c3ccc(C[C@@H](C#N)NC(=O)[C@@H]4CNCCCO4)cc3)cc21 [Brensocatib]
- IC50 [1]: > 11 µM
- Any TEAE ([2]; Japanese, Fasted (n=5)): 0 n (%)
- Serious TEAE ([2]; Japanese, Fasted (n=5)): 0 n (%)
- Severe TEAE ([2]; Japanese, Fasted (n=5)): 0 n (%)
- TEAE leading to death ([2]; Japanese, Fasted (n=5)): 0 n (%)
- TEAE leading to discontinuation ([2]; Japanese, Fasted (n=5)): 0 n (%)
- Abdominal pain upper (TEAE by preferred term) ([2]; Japanese, Fasted (n=10)): 0 n (%)
- Decreased appetite (TEAE by preferred term) ([2]; Japanese, Fasted (n=10)): 0 n (%)
- Dry skin (TEAE by preferred term) ([2]; Japanese, Fasted (n=10)): 0 n (%)
- Headache (TEAE by preferred term) ([2]; Japanese, Fasted (n=10)): 0 n (%)
- Skin exfoliation (TEAE by preferred term) ([2]; Japanese, Fasted (n=10)): 0 n (%)
- Skin lesion (TEAE by preferred term) ([2]; Japanese, Fasted (n=10)): 0 n (%)
- Any TEAE ([2]; Japanese, Fed (n=5)): 3 (60.0) n (%)
- Serious TEAE ([2]; Japanese, Fed (n=5)): 0 n (%)
- Severe TEAE ([2]; Japanese, Fed (n=5)): 0 n (%)
- TEAE leading to death ([2]; Japanese, Fed (n=5)): 0 n (%)
- TEAE leading to discontinuation ([2]; Japanese, Fed (n=5)): 0 n (%)
- Abdominal pain upper (TEAE by preferred term) ([2]; Japanese, Fed (n=9)): 1 (11.1) n (%)
- Decreased appetite (TEAE by preferred term) ([2]; Japanese, Fed (n=9)): 1 (11.1) n (%)
- Dry skin (TEAE by preferred term) ([2]; Japanese, Fed (n=9)): 0 n (%)
- Headache (TEAE by preferred term) ([2]; Japanese, Fed (n=9)): 1 (11.1) n (%)
- Skin exfoliation (TEAE by preferred term) ([2]; Japanese, Fed (n=9)): 1 (11.1) n (%)
- Skin lesion (TEAE by preferred term) ([2]; Japanese, Fed (n=9)): 0 n (%)
- Abdominal pain upper (TEAE by preferred term) ([2]; Japanese, Total (N=10)): 1 (10.0) n (%)
- Any TEAE ([2]; Japanese, Total (N=10)): 3 (30.0) n (%)
- Decreased appetite (TEAE by preferred term) ([2]; Japanese, Total (N=10)): 1 (10.0) n (%)
- Dry skin (TEAE by preferred term) ([2]; Japanese, Total (N=10)): 0 n (%)
- Headache (TEAE by preferred term) ([2]; Japanese, Total (N=10)): 1 (10.0) n (%)
- Serious TEAE ([2]; Japanese, Total (N=10)): 0 n (%)
- Severe TEAE ([2]; Japanese, Total (N=10)): 0 n (%)
- Skin exfoliation (TEAE by preferred term) ([2]; Japanese, Total (N=10)): 1 (10.0) n (%)
- Skin lesion (TEAE by preferred term) ([2]; Japanese, Total (N=10)): 0 n (%)
- TEAE leading to death ([2]; Japanese, Total (N=10)): 0 n (%)
- TEAE leading to discontinuation ([2]; Japanese, Total (N=10)): 0 n (%)
- Any TEAE ([2]; White, Fasted (n=5)): 1 (20.0) n (%)
- Serious TEAE ([2]; White, Fasted (n=5)): 0 n (%)
- Severe TEAE ([2]; White, Fasted (n=5)): 0 n (%)
- TEAE leading to death ([2]; White, Fasted (n=5)): 0 n (%)
- TEAE leading to discontinuation ([2]; White, Fasted (n=5)): 0 n (%)
- Abdominal pain upper (TEAE by preferred term) ([2]; White, Fasted (n=10)): 0 n (%)
- Decreased appetite (TEAE by preferred term) ([2]; White, Fasted (n=10)): 0 n (%)
- Dry skin (TEAE by preferred term) ([2]; White, Fasted (n=10)): 0 n (%)
- Headache (TEAE by preferred term) ([2]; White, Fasted (n=10)): 0 n (%)
- Skin exfoliation (TEAE by preferred term) ([2]; White, Fasted (n=10)): 0 n (%)
- Skin lesion (TEAE by preferred term) ([2]; White, Fasted (n=10)): 1 (10.0) n (%)
- Any TEAE ([2]; White, Fed (n=5)): 2 (40.0) n (%)
- Serious TEAE ([2]; White, Fed (n=5)): 0 n (%)
- Severe TEAE ([2]; White, Fed (n=5)): 0 n (%)
- TEAE leading to death ([2]; White, Fed (n=5)): 0 n (%)
- TEAE leading to discontinuation ([2]; White, Fed (n=5)): 0 n (%)
- Abdominal pain upper (TEAE by preferred term) ([2]; White, Fed (n=10)): 0 n (%)
- Decreased appetite (TEAE by preferred term) ([2]; White, Fed (n=10)): 0 n (%)
- Dry skin (TEAE by preferred term) ([2]; White, Fed (n=10)): 1 (10.0) n (%)
- Headache (TEAE by preferred term) ([2]; White, Fed (n=10)): 0 n (%)
- Skin exfoliation (TEAE by preferred term) ([2]; White, Fed (n=10)): 1 (10.0) n (%)
- Skin lesion (TEAE by preferred term) ([2]; White, Fed (n=10)): 0 n (%)
- Abdominal pain upper (TEAE by preferred term) ([2]; White, Total (N=10)): 0 n (%)
- Any TEAE ([2]; White, Total (N=10)): 3 (30.0) n (%)
- Decreased appetite (TEAE by preferred term) ([2]; White, Total (N=10)): 0 n (%)
- Dry skin (TEAE by preferred term) ([2]; White, Total (N=10)): 1 (10.0) n (%)
- Headache (TEAE by preferred term) ([2]; White, Total (N=10)): 0 n (%)
- Serious TEAE ([2]; White, Total (N=10)): 0 n (%)
- Severe TEAE ([2]; White, Total (N=10)): 0 n (%)
- Skin exfoliation (TEAE by preferred term) ([2]; White, Total (N=10)): 1 (10.0) n (%)
- Skin lesion (TEAE by preferred term) ([2]; White, Total (N=10)): 1 (10.0) n (%)
- TEAE leading to death ([2]; White, Total (N=10)): 0 n (%)
- TEAE leading to discontinuation ([2]; White, Total (N=10)): 0 n (%)
- participants reporting skin exfoliation ([2]; Japanese): 10.0%
- participants who experienced a TEAE ([2]; Japanese): 30.0%
- number of TEAEs reported ([2]; Japanese, fasted conditions): none
- number of TEAEs reported ([2]; Japanese, fed conditions): 4
- participants reporting skin exfoliation ([2]; White): 10.0%
- participants who experienced a TEAE ([2]; White): 30.0%
- number of TEAEs reported ([2]; White, fasted conditions): 1
- number of TEAEs reported ([2]; White, fed conditions): 2
- IC50 (CYP2D6): > 30 µM
- brensocatib in plasma, share of total radioactivity exposure [3]: > 80%
- most abundant metabolite in plasma, share of total radioactivity exposure [3]: ≈ 3%
- substrate status [4]: substrate
- CYP inhibition (CYP2C9): no effect
- CYP inhibition (CYP2A6): no effect
- CYP inhibition (CYP2E1): no effect
- CYP induction (significant inducer or not) (CYP1A2): not a significant
- IC50 (CYP3A4/5): > 30 µM
